Paper PMC6535718 (Journal of the American Chemical Society, 2019)
Where two headings read alike, the source gives them in different places.

Legend:
P. aeruginosa PAO1 = assay: Effect of analogs on the potency of fluoroquinolone antibiotics, strain PAO1; format: cell-based, Pseudomonas aeruginosa; conditions: PAO1, ciprofloxacin 0.25 μg/mL, 18 h, M63 + 4 μM Fe
P. aeruginosa = conditions: cited from earlier work
[1] = fluoroquinolone at the reported MIC, Figure 9 legend

For `O=C(O)c1cn(C2CC2)c2cc(N3CCNCC3)c(F)cc2c1=O` [ciprofloxacin], the “% survival relative to untreated control, ciprofloxacin only” value (P. aeruginosa PAO1) is listed as “approximately 10%” and the “reported MIC” value (P. aeruginosa) is listed as 0.25 µg/mL.

For `CCn1cc(C(=O)O)c(=O)c2cc(F)c(N3CCNCC3)cc21` [norfloxacin], the “reported MIC” value (P. aeruginosa; [1]) is listed as 0.9 µg/mL.

In the case of `C[C@H]1COc2c(N3CCN(C)CC3)c(F)cc3c(=O)c(C(=O)O)cn1c23` [levofloxacin], the “reported MIC” value (P. aeruginosa; [1]) is listed as 0.5 µg/mL.
